As a reminder, the Ki is a dissociation constant, usually derived from enzyme kinetics or from competition with a known ligand. A low value points to higher affinity.

From ChEMBL document CHEMBL1134211, “8-Carboxamidocyclazocine analogues: redefining the structure-activity relationships of 2,6-methano-3-benzazocines” (Bioorg Med Chem Lett, 2001) come the findings set out here.

The nature of assay [1]: Displacement of [3H]naltrindole from Opioid receptor delta 1 of guinea pig brain membranes. A general note: Loss of bound radioactivity is the signal in a displacement assay; it reports binding, not function.
The target in assay [2] is Mu-type opioid receptor (Cavia porcellus, UniProt P97266). In words: Displacement of [3H]DAMGO from Opioid receptor mu 1 of guinea pig brain membranes.
Chain of Mu-type opioid receptor (P97266 whole entry): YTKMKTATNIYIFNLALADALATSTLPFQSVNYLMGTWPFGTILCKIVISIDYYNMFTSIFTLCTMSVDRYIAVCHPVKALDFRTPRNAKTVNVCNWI
Assay [3] addresses Kappa-type opioid receptor (Cavia porcellus, UniProt P41144). The experiment in a line: Displacement of [3H]U-69593 from Opioid receptor kappa 1 of guinea pig brain membranes.

Chain of Kappa-type opioid receptor (P41144 whole entry): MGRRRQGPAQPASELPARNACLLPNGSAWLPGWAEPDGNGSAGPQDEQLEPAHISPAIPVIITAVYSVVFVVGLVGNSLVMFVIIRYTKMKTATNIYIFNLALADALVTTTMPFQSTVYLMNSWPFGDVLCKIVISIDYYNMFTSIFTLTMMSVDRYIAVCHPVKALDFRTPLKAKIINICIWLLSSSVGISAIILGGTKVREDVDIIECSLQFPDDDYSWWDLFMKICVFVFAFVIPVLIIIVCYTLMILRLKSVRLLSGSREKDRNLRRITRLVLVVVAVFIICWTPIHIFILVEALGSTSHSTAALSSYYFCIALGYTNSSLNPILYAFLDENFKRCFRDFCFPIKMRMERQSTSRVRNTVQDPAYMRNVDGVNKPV

In turn, `C[C@@H]1[C@@H]2Cc3ccc(O)cc3[C@@]1(C)CN2CC1CC1` returned a Ki in assay [1] of 1100 nM.
`C[C@H]1C2Cc3ccc(C#N)cc3[C@@]1(C)CCN2CC1CC1` (mixture of isomers) returned a Ki in assay [2] of 540 nM.
For the molecule `CNC(=O)c1ccc2c(c1)[C@@]1(C)CCN(CC3CC3)C(C2)[C@@H]1C` (mixture of isomers), the results for the inhibitory constant (Ki) in assay [3] and in assay [2] were 2.6 nM and 24 nM, respectively.
The matching figures for `C[C@H]1C2Cc3ccc(C(=O)O)cc3[C@@]1(C)CCN2CC1CC1` (mixture of isomers): 31 nM and 58 nM.
`COC(=O)c1ccc2c(c1)[C@@]1(C)CCN(CC3CC3)C(C2)[C@@H]1C` (mixture of isomers) showed a Ki in assay [2] of 45 nM.
For `C[C@H]1C2Cc3ccc(C(=O)Nc4ccccc4)cc3[C@@]1(C)CCN2CC1CC1` (mixture of isomers), the Ki was 460 nM in assay [3] and 740 nM in assay [2].
In the case of `C[C@H]1C2Cc3ccc(C(=O)N(C)C)cc3[C@@]1(C)CCN2CC1CC1` (mixture of isomers), the Ki in assay [3] was 2500 nM; in assay [2], 3000 nM.
With `CC[C@@]12CCN(CC3CC3)C(C(=O)c3ccc(C(N)=O)cc31)[C@@H]2C` (mixture of isomers), the Ki in assay [3] was 0.7 nM; in assay [2], 1.2 nM.
In turn, `C[C@H]1[C@H]2Cc3ccc(O)cc3[C@@]1(C)CCN2CC1CC1` (racemic) yielded a Ki in assay [1] of 1.1 nM.
